Experimental findings from patent US20210387978A1, “CYCLOBUTYL DIHYDROQUINOLINE SULFONAMIDE COMPOUNDS” (AMGEN INC., priority 2020, published 2021) are described below.

pIC50: −log10 of the molar value.

For this assay, the target named is T1, Human Nav1.7 (Homo sapiens, UniProt Q15858).
T1 construct: expressed in transfected cells; host or cells: Spiking HEK cells (without Kir2.1 transfection)
Kind of assay: IonWorks Barracuda (IWB) automated patch clamp assay. The format is cell-based. Conditions: human Nav1.7 currents, HEK cells, population patch-clamp, state- and use-dependent voltage protocol; read-out: hNaV1.7 IWB-U IC50. The protocol: Ionaworks Barracuda […] Automated Patch Clamp Assay (Same Protocol for Both Human and Mouse)
Human Nav1.7 currents were recorded in population patch-clamp mode with the IWB automated electrophysiology system (Molecular Devices, LLC, Sunnyvale, Calif.). Spiking HEK cells (without Kir2.1 transfection) were cultured and prepared for recordings as previously described for IonWorks Quattro testing^1. The external solution consisted of the following (in mM): NaCl 140, KCl 5, CaCl2 2, MgCl2 1, HEPES 10, and glucose 11, pH 7.4, with N-methyl-D-glucamine at 320 mOsmol. […] From a holding potential of −110 mV, currents were elicited by a train of 26 depolarizations of 150 ms duration to −20 mV at a frequency of 5 Hz. Cells were then clamped to −20 mV for a period of 4 minutes in the presence of a single concentration of test compound. Following this compound incubation period, cells were clamped to −110 mV for three seconds to recover unbound channels and put through the same 26 pulse voltage protocol as above. Peak inward current during the 26th pulse to −20 mV in the presence of compound was divided by the peak inward current evoked by the 26th pulse to −20 mV in the absence of compound to determine percent inhibition. Concentration-response curves of percent inhibition as a function of concentration were generated to calculate IC50 values as described in Kornecook, T. J.; Yin, R.; Altmann, S.; et al. Pharmacologic Characterization of AMG8379, a Potent and Selective Small Molecule Sulfonamide Antagonist of the Voltage-Gated Sodium Channel NaV1. 7.
The potency of the compounds of the present invention were evaluated on human Nav1.7 channels using the above described IonWorks Barracuda automated electrophysiology platform that evaluates the ability of compounds to block sodium conductance through Nav1.7 channels. A voltage-protocol that prosecutes both state-dependent as well as use-dependent inhibition was used as these modes of action are thought to be more relevant for the native state of Nav1.7 channels in pain sensing neurons in vivo.
(Patch clamp records ionic current or voltage across a cell membrane.)

T1 sequence (Q15858 whole entry): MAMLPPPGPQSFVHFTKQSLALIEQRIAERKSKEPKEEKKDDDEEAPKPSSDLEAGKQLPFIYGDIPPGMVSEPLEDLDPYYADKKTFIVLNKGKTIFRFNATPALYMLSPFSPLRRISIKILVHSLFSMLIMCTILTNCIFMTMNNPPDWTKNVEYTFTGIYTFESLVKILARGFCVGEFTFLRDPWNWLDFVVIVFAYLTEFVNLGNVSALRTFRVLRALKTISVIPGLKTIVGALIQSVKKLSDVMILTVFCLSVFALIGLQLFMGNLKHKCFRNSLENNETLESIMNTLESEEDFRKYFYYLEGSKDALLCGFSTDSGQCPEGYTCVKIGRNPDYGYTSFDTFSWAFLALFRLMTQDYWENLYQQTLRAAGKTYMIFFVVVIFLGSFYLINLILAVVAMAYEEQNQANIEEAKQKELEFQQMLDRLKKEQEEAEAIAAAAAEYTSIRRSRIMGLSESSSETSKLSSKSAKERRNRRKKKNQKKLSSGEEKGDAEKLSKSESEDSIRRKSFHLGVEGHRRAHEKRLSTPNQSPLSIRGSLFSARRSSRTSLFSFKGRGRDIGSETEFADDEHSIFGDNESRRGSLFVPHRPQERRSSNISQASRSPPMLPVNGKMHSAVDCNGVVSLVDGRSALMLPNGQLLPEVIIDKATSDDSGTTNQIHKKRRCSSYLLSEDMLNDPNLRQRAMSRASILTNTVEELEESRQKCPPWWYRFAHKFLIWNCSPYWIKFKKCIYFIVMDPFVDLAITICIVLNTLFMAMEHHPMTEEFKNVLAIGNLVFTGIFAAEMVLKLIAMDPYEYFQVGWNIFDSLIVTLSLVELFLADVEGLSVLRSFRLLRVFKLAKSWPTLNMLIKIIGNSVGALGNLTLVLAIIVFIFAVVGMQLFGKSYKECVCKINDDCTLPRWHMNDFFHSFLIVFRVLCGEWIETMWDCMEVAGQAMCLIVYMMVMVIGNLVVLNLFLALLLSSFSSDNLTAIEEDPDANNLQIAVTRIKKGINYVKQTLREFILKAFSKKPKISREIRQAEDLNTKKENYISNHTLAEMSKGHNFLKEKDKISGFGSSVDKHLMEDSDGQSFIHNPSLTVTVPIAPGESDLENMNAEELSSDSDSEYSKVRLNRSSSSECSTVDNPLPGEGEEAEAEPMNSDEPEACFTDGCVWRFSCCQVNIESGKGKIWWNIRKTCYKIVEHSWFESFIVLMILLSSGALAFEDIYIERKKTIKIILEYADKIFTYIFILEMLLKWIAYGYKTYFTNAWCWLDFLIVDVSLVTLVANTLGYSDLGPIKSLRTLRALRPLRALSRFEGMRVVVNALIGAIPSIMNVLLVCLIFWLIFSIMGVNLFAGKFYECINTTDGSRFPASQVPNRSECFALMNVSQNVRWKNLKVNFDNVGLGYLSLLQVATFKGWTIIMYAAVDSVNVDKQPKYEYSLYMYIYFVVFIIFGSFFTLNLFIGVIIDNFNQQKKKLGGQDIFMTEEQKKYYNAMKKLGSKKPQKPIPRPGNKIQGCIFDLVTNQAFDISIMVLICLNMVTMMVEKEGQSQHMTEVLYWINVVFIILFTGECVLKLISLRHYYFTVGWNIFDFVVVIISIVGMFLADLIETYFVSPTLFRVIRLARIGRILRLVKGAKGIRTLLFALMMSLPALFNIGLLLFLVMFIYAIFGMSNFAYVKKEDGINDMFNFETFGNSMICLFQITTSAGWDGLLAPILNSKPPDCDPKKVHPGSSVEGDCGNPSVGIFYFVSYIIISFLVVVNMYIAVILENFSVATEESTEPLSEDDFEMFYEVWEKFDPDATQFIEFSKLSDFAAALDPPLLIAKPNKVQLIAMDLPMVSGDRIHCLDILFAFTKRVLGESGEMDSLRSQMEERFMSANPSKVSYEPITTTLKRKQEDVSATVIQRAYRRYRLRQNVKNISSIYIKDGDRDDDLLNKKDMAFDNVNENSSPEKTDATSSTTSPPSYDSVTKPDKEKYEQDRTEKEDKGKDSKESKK

As a reminder, the pIC50 is the negative decadic logarithm of the IC50, by convention in mol/L. Take `COc1cc(C2CC(F)(F)C2)c(F)cc1-n1c(=O)ccc2cc(S(=O)(=O)Nc3ccon3)ccc21` (atropisomer, axis not shown; (P)) [Example 4, (P)-1-(4-(3,3-difluorocyclobutyl)-5-fluoro-2-methoxyphenyl)-N-(isoxazol-3-yl)-2-oxo-1,2-dihydroquinoline-6-sulfonamide]: the pIC50 was 7.82.

Regarding `COc1cc(C2CCC2)c(F)cc1-n1c(=O)ccc2cc(S(=O)(=O)Nc3ncco3)ccc21` (atropisomer, axis not shown; (P)) [Example 24, (P)-1-(4-cyclobutyl-5-fluoro-2-methoxyphenyl)-N-(oxazol-2-yl)-2-oxo-1,2-dihydroquinoline-6-sulfonamide], the negative-log IC50 (pIC50) was 7.89.

For the compound `COc1cc(C2CCC2)c(C)cc1-n1c(=O)ccc2cc(S(=O)(=O)Nc3ccon3)ccc21` (atropisomer, axis not shown; (P)) [Example 22, (P)-1-(4-cyclobutyl-2-methoxy-5-methylphenyl)-N-(isoxazol-3-yl)-2-oxo-1,2-dihydroquinoline-6-sulfonamide], the negative-log IC50 (pIC50) is 7.30.

`COc1cc(C2CCC2)ccc1-n1c(=O)ccc2cc(S(=O)(=O)Nc3ncccn3)ccc21` (atropisomer, axis not shown; (P)) [Example 26, (P)-1-(4-cyclobutyl-2-methoxyphenyl)-2-oxo-N-(pyrimidin-2-yl)-1,2-dihydroquinoline-6-sulfonamide]: the negative logarithm of the IC50 (pIC50) is 7.10.

Regarding `COc1cc(C2CCC2)ccc1-n1c(=O)ccc2cc(S(=O)(=O)Nc3ccon3)ccc21` (atropisomer, axis not shown; (P)) [Example 25, (P)-1-(4-cyclobutyl-2-methoxyphenyl)-N-(isoxazol-3-yl)-2-oxo-1,2-dihydroquinoline-6-sulfonamide], the pIC50 is 7.43.

Turning to `COc1cc(C2CC2)c(F)cc1-n1c(=O)ccc2cc(S(=O)(=O)Nc3ccon3)ccc21` [Compound X, 1-(4-cyclopropyl-5-fluoro-2-methoxyphenyl)-N-(isoxazol-3-yl)-2-oxo-1,2-dihydroquinoline-6-sulfonamide, reference compound], the negative logarithm of the IC50 (pIC50) is 7.32.

Regarding `COc1cc(C2CCC2)c(F)cc1-n1c(=O)ccc2cc(S(=O)(=O)Nc3ncccn3)ccc21` (atropisomer, axis not shown; (P)) [Example 28, (P)-1-(4-cyclobutyl-5-fluoro-2-methoxyphenyl)-2-oxo-N-(pyrimidin-2-yl)-1,2-dihydroquinoline-6-sulfonamide], the negative-log IC50 (pIC50) was 7.27.

Consider `COc1cc(C2CCC2)c(C)cc1-n1c(=O)ccc2cc(S(=O)(=O)Nc3ncco3)ccc21` (atropisomer, axis not shown; (P)) [Example 34, (P)-1-(4-cyclobutyl-2-methoxy-5-methylphenyl)-N-(oxazol-2-yl)-2-oxo-1,2-dihydroquinoline-6-sulfonamide], for which the pIC50 was 7.55.

On to `COc1cc([C@H]2C[C@H](C(F)(F)F)C2)ccc1-n1c(=O)ccc2cc(S(=O)(=O)Nc3cccnn3)ccc21` (atropisomer, axis not shown; (P)) [Example 38, trans-(P)-1-(2-methoxy-4-(3-(trifluoromethyl)cyclobutyl)phenyl)-2-oxo-N-(pyridazin-3-yl)-1,2-dihydroquinoline-6-sulfonamide], for which the pIC50 was 7.68.

In the case of `COc1cc([C@H]2C[C@H](C(F)(F)F)C2)c(F)cc1-n1c(=O)ccc2cc(S(=O)(=O)Nc3ccon3)c(F)cc21` (atropisomer, axis not shown; (P)) [Example 40, (P)-7-fluoro-1-(5-fluoro-2-methoxy-4-((1R,3R)-3-(trifluoromethyl)cyclobutyl)phenyl)-N-(isoxazol-3-yl)-2-oxo-1,2-dihydroquinoline-6-sulfonamide], the pIC50 is 8.30.

For `COc1cc([C@H]2C[C@@](F)(C(F)(F)F)C2)c(F)cc1-n1c(=O)ccc2cc(S(=O)(=O)Nc3ccon3)ccc21` (atropisomer, axis not shown; (P)) [Example 8, trans-(P)-1-(5-fluoro-4-(3-fluoro-3-(trifluoromethyl)cyclobutyl)-2-methoxyphenyl)-N-(isoxazol-3-yl)-2-oxo-1,2-dihydroquinoline-6-sulfonamide], the negative logarithm of the IC50 (pIC50) was 8.30.

Turning to `COc1cc(C2CCC2)c(Cl)cc1-n1c(=O)ccc2cc(S(=O)(=O)Nc3ncccn3)ccc21` (atropisomer, axis not shown; (P)) [Example 18, (P)-1-(5-chloro-4-cyclobutyl-2-methoxyphenyl)-2-oxo-N-(pyrimidin-2-yl)-1,2-dihydroquinoline-6-sulfonamide], the negative logarithm of the IC50 (pIC50) was 7.66.

With `COc1cc([C@H]2C[C@H](C(F)(F)F)C2)ccc1-n1c(=O)ccc2cc(S(=O)(=O)Nc3ccon3)ccc21` (atropisomer, axis not shown; (P)) [Example 35, trans-(P)—N-(isoxazol-3-yl)-1-(2-methoxy-4-(3-(trifluoromethyl)cyclobutyl)phenyl)-2-oxo-1,2-dihydroquinoline-6-sulfonamide], the pIC50 was 7.70.

Turning to `COc1cc(C2CCC2)c(F)cc1-n1c(=O)ccc2cc(S(=O)(=O)Nc3ccon3)ccc21` (atropisomer, axis not shown; (P)) [Example 14, (P)-1-(4-cyclobutyl-5-fluoro-2-methoxyphenyl)-N-(isoxazol-3-yl)-2-oxo-1,2-dihydroquinoline-6-sulfonamide], the pIC50 is 7.80.

Take `COc1cc([C@H]2C[C@H](C(F)(F)F)C2)c(C)cc1-n1c(=O)ccc2cc(S(=O)(=O)Nc3ccon3)ccc21` (atropisomer, axis not shown; (P)) [Example 20, trans-(P)—N-(isoxazol-3-yl)-1-(2-methoxy-5-methyl-4-(3-(trifluoromethyl)cyclobutyl)phenyl)-2-oxo-1,2-dihydroquinoline-6-sulfonamide]: the negative-log IC50 (pIC50) was 7.92.

Consider `COc1cc([C@H]2C[C@H](OC(F)(F)F)C2)c(F)cc1-n1c(=O)ccc2cc(S(=O)(=O)Nc3ccon3)ccc21` (single isomer, unassigned) [Example 45, trans-(P)-1-(5-fluoro-2-methoxy-4-(3-(trifluoromethoxy)cyclobutyl)phenyl)-N-(isoxazol-3-yl)-2-oxo-1,2-dihydroquinoline-6-sulfonamide], for which the negative-log IC50 (pIC50) is 8.10.

Regarding `COc1cc(C2CCC2)c(C)cc1-n1c(=O)ccc2cc(S(=O)(=O)Nc3cccnn3)ccc21` (atropisomer, axis not shown; (P)) [Example 30, (P)-1-(4-cyclobutyl-2-methoxy-5-methylphenyl)-2-oxo-N-(pyridazin-3-yl)-1,2-dihydroquinoline-6-sulfonamide], the pIC50 was 6.86.

Turning to `COc1cc(C23CC(C(F)(F)F)(C2)C3)c(F)cc1-n1c(=O)ccc2cc(S(=O)(=O)Nc3ccon3)ccc21` (atropisomer, axis not shown; (P)) [Example 42, (P)-1-(5-fluoro-2-methoxy-4-(3-(trifluoromethyl)bicyclo[1.1.1]pentan-1-yl)phenyl)-N-(isoxazol-3-yl)-2-oxo-1,2-dihydroquinoline-6-sulfonamide], the negative logarithm of the IC50 (pIC50) was 8.22.

As for `COc1cc([C@H]2C[C@H](C(F)(F)F)C2)c(Cl)cc1-n1c(=O)ccc2cc(S(=O)(=O)Nc3ncco3)ccc21` (atropisomer, axis not shown; (P)) [Example 49, trans (P)-1-(5-chloro-2-methoxy-4-((1R,3R)-3-(trifluoromethyl)cyclobutyl)phenyl)-N-(oxazol-2-yl)-2-oxo-1,2-dihydroquinoline-6-sulfonamide], the pIC50 was 8.00.

In the case of `COc1cc(C2CCC2)c(C)cc1-n1c(=O)ccc2cc(S(=O)(=O)Nc3ncccn3)ccc21` (atropisomer, axis not shown; (P)) [Example 27, (P)-1-(4-Cyclobutyl-2-Methoxy-5-Methylphenyl)-2-Oxo-N-(Pyrimidin-2-Yl)-1,2-Dihydro Quinoline-6-Sulfonamide], the pIC50 is 6.98.

With `COc1cc(C2CC(F)(F)C2)c(F)cc1-n1c(=O)ccc2cc(S(=O)(=O)Nc3ccon3)c(F)cc21` (atropisomer, axis not shown; (P)) [Example 41, (P)-1-(4-(3,3-difluorocyclobutyl)-5-fluoro-2-methoxyphenyl)-7-fluoro-N-(isoxazol-3-yl)-2-oxo-1,2-dihydroquinoline-6-sulfonamide], the pIC50 is 7.96.

For `COc1cc([C@H]2C[C@H](C(F)(F)F)C2)c(F)cc1-n1c(=O)ccc2cc(S(=O)(=O)Nc3cccnn3)ccc21` (atropisomer, axis not shown; (P)) [Example 39, trans-(P)-1-(5-fluoro-2-methoxy-4-(3-(trifluoromethyl)cyclobutyl)phenyl)-2-oxo-N-(pyridazin-3-yl)-1,2-dihydroquinoline-6-sulfonamide], the negative logarithm of the IC50 (pIC50) was 7.96.
